Reference: patent US6683027B2, “Herbicidal mixtures” (BASF Aktienegesellschaft, priority 2000, dated 2004)

Key:
Format in all cases: in vivo
Alopecurus myosuroides [1] = assay: greenhouse pre-emergence trial, percent damage vs untreated control 21 days after treatment; conditions: ALOMY
Setaria viridis [2] = assay: as above; conditions: SETVI, Example 1A
Matricaria inodora [3] = assay: as above; conditions: 3.75 g/ha, MATIN, Example 2
Lolium perenne [4] = assay: as above; conditions: 3.75 g/ha, LOLPE
Stellaria media [5] = assay: as above; conditions: STEME
Galium aparine [6] = assay: as above; conditions: GALAP
Galium aparine [7] = assay: greenhouse post-emergence trial, percent damage vs untreated control 21 days after treatment; conditions: GALAP
Method: (§1) The trials are carried out under greenhouse conditions in pre- and post-emergence applications. The plant seeds are sown in pots containing a loamy sand soil (0.5 l). The herbicides are applied as single treatments, or in a combination comprising a compound of formula I and compound selected from group (2) as defined above, before or after emergence of weeds and crop. The herbicidal performance is assessed as percent damage in comparison to the untreated control plants. The assessment is done 21 days after the treatment. Wheat and barley are treated at the 3-4 leaf stage, the broad-leaf weeds at the 2-4 leaf stage and annual grasses at the 2-3 leaf stage.

Apera spica-venti = assay: as above; conditions: APESV
Method: as §1

Lolium perenne [8] = assay: as above; conditions: LOLPE
Method: as §1

Alopecurus myosuroides [9] = assay: as above; conditions: ALOMY
Method: as §1

Veronica persica = assay: as above; conditions: 3.75 g/ha, VERPE, Example 1B
Method: as §1

Lamium purpureum [10] = assay: as above; conditions: LAMPU
Method: as §1

Stellaria media [11] = assay: as above; conditions: STEME
Method: as §1

Matricaria inodora [12] = assay: as above; conditions: MATIN
Method: as §1

Setaria viridis [13] = assay: as above; conditions: SETVI
Method: as §1

Papaver rhoeas = assay: as above; conditions: PAPRH, Example 1B
Method: as §1

Lamium purpureum [14] = assay: greenhouse pre-emergence trial, percent damage vs untreated control 21 days after treatment; conditions: 3.75 g/ha, LAMPU, Example 1A

SMILES: FC(F)(F)c1ccc(-c2nccc(Oc3cccc(C(F)(F)F)c3)n2)cc1 [Compound A, 4-(3-trifluoromethylphenoxy)-2-(4-trifluoromethylphenyl)-pyrimidine]
- Compound A alone (% control) (Alopecurus myosuroides [1]; 3.75 g/ha, Example 1A): 0%
- Compound A alone (% control) (Alopecurus myosuroides [1]; 3.75 g/ha, Example 3): 0%
- Compound A alone (% control) (Alopecurus myosuroides [1]; 7.5 g/ha, Example 1A): 5%
- Compound A alone (% control) (Alopecurus myosuroides [1]; 7.5 g/ha, Example 3): 0%
- Compound A alone (% control) (Setaria viridis [2]; 3.75 g/ha): 0%
- Compound A alone (% control) (Setaria viridis [2]; 7.5 g/ha): 35%
- Compound A alone (% control) (Matricaria inodora [3]): 50%
- Compound A alone (% control) (Lolium perenne [4]; Example 1A): 5%
- Compound A alone (% control) (Lolium perenne [4]; Example 2): 15%
- Compound A alone (% control) (Stellaria media [5]; 3.75 g/ha, Example 1A): 0%
- Compound A alone (% control) (Stellaria media [5]; 7.5 g/ha, Example 1A): 10%
- Compound A alone (% control) (Stellaria media [5]; 7.5 g/ha, Example 2): 5%
- Compound A alone (% control) (Stellaria media [5]; 15 g/ha, Example 1A): 60%
- Compound A alone (% control) (Galium aparine [6]; 3.75 g/ha, Example 1A): 0%
- Compound A alone (% control) (Galium aparine [6]; 3.75 g/ha, Example 2): 0%
- Compound A alone (% control) (Galium aparine [6]; 7.5 g/ha, Example 2): 0%
- Compound A alone (% control) (Galium aparine [6]; 15 g/ha, Example 2): 10%
- Compound A alone (% control) (Galium aparine [6]; 15 g/ha, Example 3): 0%
- Compound A alone (% control) (Galium aparine [6]; 30 g/ha, Example 3): 0%
- Compound A alone (% control) (Galium aparine [6]; 60 g/ha, Example 3): 10%
- Compound A alone (% control) (Galium aparine [7]; 3.75 g/ha, Example 5): 10%
- Compound A alone (% control) (Galium aparine [7]; 3.75 g/ha, Example 10): 13%
- Compound A alone (% control) (Galium aparine [7]; 3.75 g/ha, Example 14): 40%
- Compound A alone (% control) (Galium aparine [7]; 7.5 g/ha, Example 5): 23%
- Compound A alone (% control) (Galium aparine [7]; 15 g/ha, Example 10): 20%
- Compound A alone (% control) (Galium aparine [7]; 15 g/ha, Example 12): 0%
- Compound A alone (% control) (Galium aparine [7]; 30 g/ha, Example 12): 20%
- Compound A alone (% control) (Galium aparine [7]; 60 g/ha, Example 10): 55%
- Compound A alone (% control) (Apera spica-venti; 3.75 g/ha, Example 1B): 25%
- Compound A alone (% control) (Apera spica-venti; 3.75 g/ha, Example 7): 10%
- Compound A alone (% control) (Apera spica-venti; 3.75 g/ha, Example 8): 10%
- Compound A alone (% control) (Apera spica-venti; 3.75 g/ha, Example 12): 0%
- Compound A alone (% control) (Apera spica-venti; 7.5 g/ha, Example 1B): 35%
- Compound A alone (% control) (Apera spica-venti; 7.5 g/ha, Example 4): 50%
- Compound A alone (% control) (Apera spica-venti; 7.5 g/ha, Example 10): 20%
- Compound A alone (% control) (Apera spica-venti; 7.5 g/ha, Example 13): 10%
- Compound A alone (% control) (Apera spica-venti; 7.5 g/ha, Example 14): 5%
- Compound A alone (% control) (Apera spica-venti; 15 g/ha, Example 1B): 40%
- Compound A alone (% control) (Apera spica-venti; 15 g/ha, Example 10): 50%
- Compound A alone (% control) (Apera spica-venti; 15 g/ha, Example 14): 10%
- Compound A alone (% control) (Apera spica-venti; 30 g/ha, Example 5): 68%
- Compound A alone (% control) (Apera spica-venti; 30 g/ha, Example 12): 53%
- Compound A alone (% control) (Lolium perenne [8]; 3.75 g/ha, Example 1B): 10%
- Compound A alone (% control) (Lolium perenne [8]; 3.75 g/ha, Example 12): 0%
- Compound A alone (% control) (Lolium perenne [8]; 7.5 g/ha, Example 1B): 28%
- Compound A alone (% control) (Lolium perenne [8]; 7.5 g/ha, Example 4): 23%
- Compound A alone (% control) (Lolium perenne [8]; 15 g/ha, Example 1B): 50%
- Compound A alone (% control) (Lolium perenne [8]; 15 g/ha, Example 5): 23%
- Compound A alone (% control) (Lolium perenne [8]; 30 g/ha, Example 6): 60%
- Compound A alone (% control) (Lolium perenne [8]; 30 g/ha, Example 7): 65%
- Compound A alone (% control) (Lolium perenne [8]; 30 g/ha, Example 13): 28%
- Compound A alone (% control) (Lolium perenne [8]; 60 g/ha, Example 7): 75%
- Compound A alone (% control) (Lolium perenne [8]; 60 g/ha, Example 8): 75%
- Compound A alone (% control) (Lolium perenne [8]; 60 g/ha, Example 11): 40%
- Compound A alone (% control) (Lolium perenne [8]; 60 g/ha, Example 13): 63%
- Compound A alone (% control) (Alopecurus myosuroides [9]; 3.75 g/ha, Example 1B): 10%
- Compound A alone (% control) (Alopecurus myosuroides [9]; 3.75 g/ha, Example 12): 0%
- Compound A alone (% control) (Alopecurus myosuroides [9]; 3.75 g/ha, Example 13): 3%
- Compound A alone (% control) (Alopecurus myosuroides [9]; 7.5 g/ha, Example 1B): 28%
- Compound A alone (% control) (Alopecurus myosuroides [9]; 7.5 g/ha, Example 4): 23%
- Compound A alone (% control) (Alopecurus myosuroides [9]; 7.5 g/ha, Example 5): 3%
- Compound A alone (% control) (Alopecurus myosuroides [9]; 7.5 g/ha, Example 13): 5%
- Compound A alone (% control) (Alopecurus myosuroides [9]; 15 g/ha, Example 1B): 45%
- Compound A alone (% control) (Alopecurus myosuroides [9]; 15 g/ha, Example 4): 28%
- Compound A alone (% control) (Alopecurus myosuroides [9]; 15 g/ha, Example 5): 8%
- Compound A alone (% control) (Alopecurus myosuroides [9]; 15 g/ha, Example 12): 0%
- Compound A alone (% control) (Alopecurus myosuroides [9]; 15 g/ha, Example 13): 8%
- Compound A alone (% control) (Alopecurus myosuroides [9]; 30 g/ha, Example 4): 50%
- Compound A alone (% control) (Alopecurus myosuroides [9]; 30 g/ha, Example 5): 23%
- Compound A alone (% control) (Alopecurus myosuroides [9]; 30 g/ha, Example 12): 10%
- Compound A alone (% control) (Alopecurus myosuroides [9]; 30 g/ha, Example 13): 15%
- Compound A alone (% control) (Alopecurus myosuroides [9]; 30 g/ha, Example 14): 15%
- Compound A alone (% control) (Alopecurus myosuroides [9]; 60 g/ha, Example 5): 28%
- Compound A alone (% control) (Alopecurus myosuroides [9]; 60 g/ha, Example 13): 43%
- Compound A alone (% control) (Alopecurus myosuroides [9]; 60 g/ha, Example 14): 33%
- Compound A alone (% control) (Veronica persica): 80%
- Compound A alone (% control) (Lamium purpureum [10]; 3.75 g/ha, Example 4): 20%
- Compound A alone (% control) (Lamium purpureum [10]; 3.75 g/ha, Example 7): 20%
- Compound A alone (% control) (Lamium purpureum [10]; 3.75 g/ha, Example 8): 20%
- Compound A alone (% control) (Lamium purpureum [10]; 3.75 g/ha, Example 12): 35%
- Compound A alone (% control) (Lamium purpureum [10]; 7.5 g/ha, Example 7): 35%
- Compound A alone (% control) (Lamium purpureum [10]; 7.5 g/ha, Example 8): 35%
- Compound A alone (% control) (Lamium purpureum [10]; 7.5 g/ha, Example 12): 55%
- Compound A alone (% control) (Lamium purpureum [10]; 15 g/ha, Example 1B): 83%
- Compound A alone (% control) (Lamium purpureum [10]; 15 g/ha, Example 7): 50%
- Compound A alone (% control) (Lamium purpureum [10]; 15 g/ha, Example 8): 50%
- Compound A alone (% control) (Stellaria media [11]; 3.75 g/ha, Example 1B): 10%
- Compound A alone (% control) (Stellaria media [11]; 3.75 g/ha, Example 4): 28%
- Compound A alone (% control) (Stellaria media [11]; 7.5 g/ha, Example 1B): 18%
- Compound A alone (% control) (Stellaria media [11]; 7.5 g/ha, Example 13): 30%
- Compound A alone (% control) (Stellaria media [11]; 15 g/ha, Example 1B): 45%
- Compound A alone (% control) (Stellaria media [11]; 15 g/ha, Example 9): 70%
- Compound A alone (% control) (Stellaria media [11]; 30 g/ha, Example 1B): 70%
- Compound A alone (% control) (Matricaria inodora [12]; 3.75 g/ha, Example 10): 5%
- Compound A alone (% control) (Matricaria inodora [12]; 7.5 g/ha, Example 10): 13%
- Compound A alone (% control) (Matricaria inodora [12]; 7.5 g/ha, Example 13): 15%
- Compound A alone (% control) (Matricaria inodora [12]; 15 g/ha, Example 9): 48%
- Compound A alone (% control) (Matricaria inodora [12]; 15 g/ha, Example 10): 30%
- Compound A alone (% control) (Setaria viridis [13]; 3.75 g/ha, Example 1B): 0%
- Compound A alone (% control) (Setaria viridis [13]; 3.75 g/ha, Example 4): 15%
- Compound A alone (% control) (Setaria viridis [13]; 3.75 g/ha, Example 5): 0%
- Compound A alone (% control) (Setaria viridis [13]; 3.75 g/ha, Example 9): 0%
- Compound A alone (% control) (Setaria viridis [13]; 3.75 g/ha, Example 10): 4%
- Compound A alone (% control) (Setaria viridis [13]; 3.75 g/ha, Example 14): 0%
- Compound A alone (% control) (Setaria viridis [13]; 7.5 g/ha, Example 1B): 23%
- Compound A alone (% control) (Setaria viridis [13]; 7.5 g/ha, Example 5): 8%
- Compound A alone (% control) (Setaria viridis [13]; 7.5 g/ha, Example 9): 5%
- Compound A alone (% control) (Setaria viridis [13]; 7.5 g/ha, Example 10): 15%
- Compound A alone (% control) (Setaria viridis [13]; 15 g/ha, Example 1B): 55%
- Compound A alone (% control) (Setaria viridis [13]; 15 g/ha, Example 5): 58%
- Compound A alone (% control) (Papaver rhoeas; 3.75 g/ha): 30%
- Compound A alone (% control) (Papaver rhoeas; 7.5 g/ha): 65%
- Compound A alone (% control) (Lamium purpureum [14]): 10%
